Where a name gives a salt, the structure may show the parent alone.
Biological target: T1, human TLR7 (Homo sapiens, UniProt Q9NYK1)
T1 construct: expressed in transfected cells; host or cells: HEK293 cell line stably expressing the pNiFty2-SEAP reporter plasmid; TLR7 in pUNO vector, blasticidin selection
T1 sequence (Q9NYK1 27-1049): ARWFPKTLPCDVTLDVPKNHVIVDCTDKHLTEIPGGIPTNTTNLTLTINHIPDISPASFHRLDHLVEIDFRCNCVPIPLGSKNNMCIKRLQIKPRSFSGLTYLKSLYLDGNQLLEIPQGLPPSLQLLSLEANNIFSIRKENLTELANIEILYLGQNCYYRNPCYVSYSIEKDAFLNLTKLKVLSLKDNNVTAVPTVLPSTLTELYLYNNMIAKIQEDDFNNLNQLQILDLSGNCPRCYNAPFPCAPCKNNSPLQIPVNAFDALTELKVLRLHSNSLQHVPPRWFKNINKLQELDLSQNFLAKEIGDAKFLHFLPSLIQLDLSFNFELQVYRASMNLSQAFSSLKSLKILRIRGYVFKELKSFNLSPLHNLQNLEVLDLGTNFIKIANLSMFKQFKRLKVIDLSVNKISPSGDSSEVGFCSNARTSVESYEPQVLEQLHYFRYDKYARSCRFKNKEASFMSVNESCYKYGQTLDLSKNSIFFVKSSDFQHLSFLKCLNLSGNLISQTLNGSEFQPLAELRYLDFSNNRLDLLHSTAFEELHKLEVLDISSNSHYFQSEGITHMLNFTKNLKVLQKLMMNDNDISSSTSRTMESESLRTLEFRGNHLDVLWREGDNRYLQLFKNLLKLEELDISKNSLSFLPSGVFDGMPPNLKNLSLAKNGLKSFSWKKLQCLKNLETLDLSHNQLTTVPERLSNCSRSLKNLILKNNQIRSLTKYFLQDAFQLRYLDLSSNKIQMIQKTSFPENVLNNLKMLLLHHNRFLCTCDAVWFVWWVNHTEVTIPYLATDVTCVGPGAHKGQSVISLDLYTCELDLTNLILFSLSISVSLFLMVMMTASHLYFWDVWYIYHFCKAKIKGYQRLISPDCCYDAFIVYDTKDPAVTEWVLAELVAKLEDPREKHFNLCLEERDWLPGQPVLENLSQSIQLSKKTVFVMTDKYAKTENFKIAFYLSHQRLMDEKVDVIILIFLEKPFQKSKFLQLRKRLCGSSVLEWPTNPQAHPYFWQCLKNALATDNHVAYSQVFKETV
Assay: Human TLR7 assay (SEAP reporter in HEK293 cells)
Type: cell-based
Conditions: SEAP induction in HEK293 cells expressing human TLR7, overnight incubation at 37° C., 0.1% DMSO

Structure (SMILES) | EC50
COCCc1nc2c(N)nc3ccccc3c2n1CCCN(Cc1ccc(CC(=O)OC)cc1)C(=O)CN(C)CCO [Example 38, Methyl 2-(4-((N-(3-(4-amino-2-(2-methoxyethyl)-1H-imidazo[4,5-c]quinolin-1-yl)propyl)-2-((2-hydroxyethyl)(methyl)amino)acetamido)methyl)phenyl)acetate disaccharin salt] | 1580 nM
CCCCc1nc2c(N)nc3ccccc3c2n1CCCN(Cc1cccc(CC(=O)OC)c1)C(=O)CN(C)CCOC [Example 39, Methyl 2-(3-((N-(3-(4-amino-2-butyl-1H-imidazo[4,5-c]quinolin-1-yl)propyl)-2-((2-methoxyethyl)(methyl)amino)acetamido)methyl)phenyl)acetate] | 158 nM
CCCCc1nc2c(N)nc3ccccc3c2n1CCCN(Cc1cccc(CC(=O)OC)c1)C(=O)CN(C)CCCC [Example 40, Methyl 2-(3-((N-(3-(4-amino-2-butyl-1H-imidazo[4,5-c]quinolin-1-yl)propyl)-2-(butyl(methyl)amino)acetamido)methyl)phenyl)acetate] | 126 nM
CCCCc1nc2c(N)nc3ccccc3c2n1CCCN(Cc1cccc(CC(=O)OC)c1)C(=O)CN(CCC)CCC [Example 41] | 79.4 nM
CCCCc1nc2c(N)nc3ccccc3c2n1CCCN(Cc1cccc(CC(=O)OC)c1)C(=O)CN(CCO)CCO [Example 42, Methyl 2-(3-((N-(3-(4-amino-2-butyl-1H-imidazo[4,5-c]quinolin-1-yl)propyl)-2-(bis(2-hydroxyethyl)amino)acetamido)methyl)phenyl)acetate] | 1580 nM
CCCCc1nc2c(N)nc3ccccc3c2n1CCCN(Cc1cccc(CC(=O)OC)c1)C(=O)CN(C)C1CCOCC1 [Example 43, Methyl 2-(3-((N-(3-(4-amino-2-butyl-1H-imidazo[4,5-c]quinolin-1-yl)propyl)-2-(methyl(tetrahydro-2H-pyran-4-yl)amino)acetamido)methyl)phenyl)acetate] | 126 nM
CCCCc1nc2c(N)nc3ccccc3c2n1CCCN(Cc1cccc(CC(=O)OC)c1)C(=O)CN1CCC1 [Example 44, Methyl 2-(3-((N-(3-(4-amino-2-butyl-1H-imidazo[4,5-c]quinolin-1-yl)propyl)-2-(azetidin-1-yl)acetamido)methyl)phenyl)acetate] | 251 nM
CCCCc1nc2c(N)nc3ccccc3c2n1CCCN(Cc1cccc(CC(=O)OC)c1)C(=O)CN1CC(O)C1 [Example 45, Methyl 2-(3-((N-(3-(4-amino-2-butyl-1H-imidazo[4,5-c]quinolin-1-yl)propyl)-2-(3-hydroxyazetidin-1-yl)acetamido)methyl)phenyl)acetate] | 1580 nM
CCCCc1nc2c(N)nc3ccccc3c2n1CCCN(Cc1cccc(CC(=O)OC)c1)C(=O)CN1CCCC1 [Example 46, Methyl 2-(3-((N-(3-(4-amino-2-butyl-1H-imidazo[4,5-c]quinolin-1-yl)propyl)-2-(pyrrolidin-1-yl)acetamido)methyl)phenyl)acetate] | 63.1 nM
CCCCc1nc2c(N)nc3ccccc3c2n1CCCN(Cc1cccc(CC(=O)OC)c1)C(=O)CN1CCC(O)C1 (stereo not drawn) [Example 47, Methyl 2-(3-((N-(3-(4-amino-2-butyl-1H-imidazo[4,5-c]quinolin-1-yl)propyl)-2-(3-hydroxypyrrolidin-1-yl)acetamido)methyl)phenyl)acetate] | 398 nM
CCCCc1nc2c(N)nc3ccccc3c2n1CCCN(Cc1cccc(CC(=O)OC)c1)C(=O)CN1CC[C@@H](O)C1 [Example 48, (R)-Methyl 2-(3-((N-(3-(4-amino-2-butyl-1H-imidazo[4,5-c]quinolin-1-yl)propyl)-2-(3-hydroxypyrrolidin-1-yl)acetamido)methyl)phenyl)acetate] | 398 nM
CCCCc1nc2c(N)nc3ccccc3c2n1CCCN(Cc1cccc(CC(=O)OC)c1)C(=O)CN1CCCCC1 [Example 49, Methyl 2-(3-((N-(3-(4-amino-2-butyl-1H-imidazo[4,5-c]quinolin-1-yl)propyl)-2-(piperidin-1-yl)acetamido)methyl)phenyl)acetate] | 79.4 nM
CCCCc1nc2c(N)nc3ccccc3c2n1CCCN(Cc1cccc(CC(=O)OC)c1)C(=O)CN1CCC(O)CC1 [Example 50, Methyl 2-(3-((N-(3-(4-amino-2-butyl-1H-imidazo[4,5-c]quinolin-1-yl)propyl)-2-(4-hydroxypiperidin-1-yl)acetamido)methyl)phenyl)acetate] | 501 nM
CCCCc1nc2c(N)nc3ccccc3c2n1CCCN(Cc1cccc(CC(=O)OC)c1)C(=O)CN1CCC(OC)CC1 [Example 51, Methyl 2-(3-((N-(3-(4-amino-2-butyl-1H-imidazo[4,5-c]quinolin-1-yl)propyl)-2-(4-methoxypiperidin-1-yl)acetamido)methyl)phenyl)acetate] | 200 nM
CCCCc1nc2c(N)nc3ccccc3c2n1CCCN(Cc1cccc(CC(=O)OC)c1)C(=O)CN1CCC(C(=O)N(C)C)CC1 [Example 52, Methyl 2-(3-((N-(3-(4-amino-2-butyl-1H-imidazo[4,5-c]quinolin-1-yl)propyl)-2-(4-(dimethylcarbamoyl)piperidin-1-yl)acetamido)methyl)phenyl)acetate] | 631 nM
CCCCc1nc2c(N)nc3ccccc3c2n1CCCN(Cc1cccc(CC(=O)OC)c1)C(=O)CN1CCOCC1 [Example 53, Methyl 2-(3-((N-(3-(4-amino-2-butyl-1H-imidazo[4,5-c]quinolin-1-yl)propyl)-2-morpholinoacetamido)methyl)phenyl)acetate] | 794 nM
CCCCc1nc2c(N)nc3ccccc3c2n1CCCN(Cc1cccc(CC(=O)OC)c1)C(=O)CN1C[C@@H](C)O[C@@H](C)C1 [Example 54, Methyl 2-(3-((N-(3-(4-amino-2-butyl-1H-imidazo[4,5-c]quinolin-1-yl)propyl)-2-((2S,6R)-2,6-dimethylmorpholino)acetamido)methyl)phenyl)acetate] | 1000 nM
CCCCc1nc2c(N)nc3ccccc3c2n1CCCN(Cc1cccc(CC(=O)OC)c1)C(=O)CN1CCN(C)CC1 [Example 55, Methyl 2-(3-((N-(3-(4-amino-2-butyl-1H-imidazo[4,5-c]quinolin-1-yl)propyl)-2-(4-methylpiperazin-1-yl)acetamido)methyl)phenyl)acetate] | 79.4 nM
CCCCc1nc2c(N)nc3ccccc3c2n1CCCN(Cc1cccc(CC(=O)OC)c1)C(=O)CN1CCN(CCO)CC1 [Example 56, Methyl 2-(3-((N-(3-(4-amino-2-butyl-1H-imidazo[4,5-c]quinolin-1-yl)propyl)-2-(4-(2-hydroxyethyl)piperazin-1-yl)acetamido)methyl)phenyl)acetate] | 501 nM
CCCCc1nc2c(N)nc3ccccc3c2n1CCCN(Cc1cccc(CC(=O)OC)c1)C(=O)CN1CCN(CCOC)CC1 [Example 57, Methyl 2-(3-((N-(3-(4-amino-2-butyl-1H-imidazo[4,5-c]quinolin-1-yl)propyl)-2-(4-(2-methoxyethyl)piperazin-1-yl)acetamido)methyl)phenyl)acetate] | 50.1 nM
CCCCc1nc2c(N)nc3ccccc3c2n1CCCN(Cc1cccc(CC(=O)OC)c1)C(=O)CN1CCN(C(C)=O)CC1 [Example 58, Methyl 2-(3-((2-(4-acetylpiperazin-1-yl)-N-(3-(4-amino-2-butyl-1H-imidazo[4,5-c]quinolin-1-yl)propyl)acetamido)methyl)phenyl)acetate] | 1260 nM
CCCCc1nc2c(N)nc3ccccc3c2n1CCCN(Cc1cccc(CC(=O)OC)c1)C(=O)CN1CCN(S(C)(=O)=O)CC1 [Example 59, Methyl 2-(3-((N-(3-(4-amino-2-butyl-1H-imidazo[4,5-c]quinolin-1-yl)propyl)-2-(4-(methylsulfonyl)piperazin-1-yl)acetamido)methyl)phenyl)acetate] | 794 nM
CCCCc1nc2c(N)nc3ccccc3c2n1CCCN(Cc1cccc(CC(=O)OC)c1)C(=O)CN1CCCCCC1 [Example 60, Methyl 2-(3-((N-(3-(4-amino-2-butyl-1H-imidazo[4,5-c]quinolin-1-yl)propyl)-2-(azepan-1-yl)acetamido)methyl)phenyl)acetate] | 79.4 nM
CCCCc1nc2c(N)nc3ccccc3c2n1CCCN(Cc1cccc(CC(=O)OC)c1)C(=O)CN1CCCOCC1 [Example 61, Methyl 2-(3-((N-(3-(4-amino-2-butyl-1H-imidazo[4,5-c]quinolin-1-yl)propyl)-2-(1,4-oxazepan-4-yl)acetamido)methyl)phenyl)acetate] | 398 nM
